The values that follow come from US20070082880A1 (priority 2005, published 2007).

Counter-ions that a name gives are not always drawn.

In one data set the target is PKCθ (Homo sapiens, UniProt Q04759). Description: PKCθ Scintiplate Assay. As to conditions: average value when one or more samples were tested. The data set is classed as biochemical. As for the experimental part: This assay detects the phosphorylation of a biotinylated substrate by kinase utilizing radiolabeled ATP (ATP γ P33). The enzyme is either recombinant full length PKCθ (Panvera, P2996) or the purified recombinant active kinase domain of full length PKCθ (amino acids 362-706). The substrate in this assay is a biotinylated peptide with a sequence of biotin-[…]-CONH2. The assay buffer is composed of 100 mM Hepes, pH7.5, 2 mM MgCl2, 20 mM β-glycerophosphate and 0.008% TritonX 100. A reaction mixture of ATP, ATP γ P33 (PerkinElmer), DTT, lipid activator, and the enzyme is prepared in the assay buffer and added to a 96 well polypropylene plate. The compound (diluted in DMSO in a separate 96-well polypropylene plate) is added to the reaction mixture and incubated at room temperature. Following the incubation, the peptide substrate is added to the reaction mixture to initiate the enzymatic reaction. The reaction is terminated with the addition of a stop solution (10 mM EDTA, 0.2% TritonX100, and 100 mM NaHPO4) and transferred from the assay plate to a washed streptavidin-coated 96 well scintiplate (PerkinElmer). The scintiplate is incubated at room temperature, washed in PBS with 0.1% TritonX 100, and counted in the 1450 Microbeta Trilux (Wallac, Version 2.60). Counts are recorded for each well as corrected counts per minute (CCPM). The counts are considered corrected because they are adjusted according to a P33 normalization protocol, which corrects for efficiency and background differences between the instrument detectors (software version 4.40.01).

Data set [1] concerns the target T1, human PKCθ full length enzyme (Homo sapiens, UniProt Q04759).
T1 construct: human PKCθ full length enzyme (Panvera Catalog No. P2996); purchased Panvera P2996
Briefly: PKCθ IMAP Assay. Format: biochemical. As to conditions: average value when one or more samples were tested; ATP 6 uM, PKCθ 1 nM. In a few lines:
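IMAP fluorescence polarization after 20 min with binding beads measured phosphorylation of 100 nM 5FAM-peptide. Reactions held 1 nM full-length human PKCθ, 6 uM ATP, 5% DMSO and DTT-containing buffer, 25 min at room temperature. Compounds tested as 2:1 serial dilutions; controls lacked ATP or enzyme.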

PKCθ, sequence (Q04759 362-706 limits assumed): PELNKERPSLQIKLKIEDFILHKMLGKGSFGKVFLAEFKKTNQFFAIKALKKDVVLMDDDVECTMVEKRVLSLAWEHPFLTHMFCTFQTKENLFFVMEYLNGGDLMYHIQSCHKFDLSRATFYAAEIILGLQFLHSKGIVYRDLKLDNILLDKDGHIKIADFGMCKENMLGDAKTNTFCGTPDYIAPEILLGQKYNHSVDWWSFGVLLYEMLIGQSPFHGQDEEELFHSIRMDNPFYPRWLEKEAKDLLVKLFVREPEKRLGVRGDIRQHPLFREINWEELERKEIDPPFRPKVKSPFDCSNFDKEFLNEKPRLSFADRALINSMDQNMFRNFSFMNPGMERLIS
T1 sequence (Q04759 whole entry): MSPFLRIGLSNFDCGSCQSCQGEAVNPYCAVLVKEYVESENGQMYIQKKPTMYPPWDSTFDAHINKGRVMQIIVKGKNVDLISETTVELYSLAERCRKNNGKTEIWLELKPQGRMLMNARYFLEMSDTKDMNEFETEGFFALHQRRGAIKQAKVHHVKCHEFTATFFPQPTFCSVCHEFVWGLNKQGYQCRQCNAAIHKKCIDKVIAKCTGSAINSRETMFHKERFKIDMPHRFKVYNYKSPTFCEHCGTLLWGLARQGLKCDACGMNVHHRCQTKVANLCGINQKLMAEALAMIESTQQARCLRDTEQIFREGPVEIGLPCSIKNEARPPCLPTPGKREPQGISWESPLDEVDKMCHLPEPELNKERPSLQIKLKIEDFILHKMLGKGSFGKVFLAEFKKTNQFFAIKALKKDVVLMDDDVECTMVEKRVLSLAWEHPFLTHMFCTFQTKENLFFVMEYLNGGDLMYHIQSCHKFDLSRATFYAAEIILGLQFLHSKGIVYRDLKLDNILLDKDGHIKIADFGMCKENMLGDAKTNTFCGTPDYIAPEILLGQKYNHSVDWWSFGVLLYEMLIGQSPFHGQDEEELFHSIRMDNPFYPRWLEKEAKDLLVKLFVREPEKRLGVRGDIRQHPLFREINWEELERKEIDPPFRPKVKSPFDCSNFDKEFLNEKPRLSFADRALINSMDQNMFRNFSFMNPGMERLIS

For the compound `N#Cc1cnc2sc(-c3ccc(C=O)cc3)cc2c1Nc1ccc2[nH]ccc2c1` [Compound 103, 2-(4-formylphenyl)-4-(1H-indol-5-ylamino)thieno[2,3-b]pyridine-5-carbonitrile], the melting point is above 260 °C. Besides, at PKCθ, half-maximal inhibition (IC50) required 51 nM.
Regarding `N#Cc1cnc2sc(C#Cc3ccccn3)cc2c1Nc1ccc2[nH]ccc2c1` [Compound 213, 4-(1H-indol-5-ylamino)-2-(pyridine-2-ylethynyl)thieno[2,3-b]pyridine-5-carbonitrile], the values for the IC50 (in data set [1]; against PKCθ) were 290 nM and 75 nM, respectively.
Consider `CN(C)Cc1nc(-c2cc3c(Nc4ccc5[nH]ccc5c4)c(C#N)cnc3s2)cs1` [Compound 208, 2-{2-[(dimethylamino)methyl]-1,3-thiazol-4-yl}-4-(1H-indol-5-ylamino)thieno[2,3-b]pyridine-5-carbonitrile], for which the IC50 was 100 nM in data set [1] and 50 nM against PKCθ.
Turning to `CN1CCN(Cc2ccccc2-c2cc3c(Nc4cccc5[nH]ccc45)c(C#N)cnc3s2)CC1` [Compound 143, 4-(1H-indol-4-ylamino)-2-{2-[(4-methylpiperazin-1-yl)methyl]phenyl}thieno[2,3-b]pyridine-5-carbonitrile], the IC50 was found to be 240 nM in data set [1] and 180 nM against PKCθ.
For `N#Cc1cnc2sc(C#Cc3ccncc3)cc2c1Nc1ccc2[nH]ccc2c1` [Compound 226, 4-(1H-indol-5-ylamino)-2-(pyridin-4-ylethynyl)thieno[2,3-b]pyridine-5-carbonitrile], the IC50 in data set [1] amounted to 570 nM; at PKCθ, 76 nM.
As for `N#Cc1cnc2sc(C#Cc3cccnc3)cc2c1Nc1ccc2[nH]ccc2c1` [Compound 214, 4-(1H-indol-5-ylamino)-2-(pyridin-3-ylethynyl)thieno[2,3-b]pyridine-5-carbonitrile], the IC50 in data set [1] worked out at 190 nM; at PKCθ it was 16 nM.
Turning to `CCN(CC)CC#Cc1cc2c(Nc3ccc4[nH]ccc4c3)c(C#N)cnc2s1` [Compound 225, 2-[3-(diethylamino)prop-1-yn-1-yl]-4-(1H-indol-5-ylamino)thieno[2,3-b]pyridine-5-carbonitrile], the half-inhibitory concentration (IC50) in data set [1] worked out at 440 nM; against PKCθ, 220 nM.
Turning to `N#Cc1cnc2sc(-c3ccccc3)cc2c1Nc1ccc2cc[nH]c2c1` [Compound 116, 4-(1H-indol-6-ylamino)-2-phenylthieno[2,3-b] pyridine-5-carbonitrile hydrochloride], the IC50 was 5600 nM in data set [1] and above 3300 nM against PKCθ.
For `N#Cc1cnc2sc(C#Cc3cccnc3)cc2c1Nc1cccc2[nH]ccc12` [Compound 218, 4-(1H-indol-4-ylamino)-2-(pyridin-3-ylethynyl)thieno[2,3-b]pyridine-5-carbonitrile], the IC50 in data set [1] was 52 nM; on PKCθ, 34 nM.
In the case of `N#Cc1cnc2sc(-c3ccccc3)cc2c1NC(=O)c1ccc2[nH]ccc2c1` [Compound 129, N-(5-cyano-2-phenylthieno[2,3-b]pyridin-4-yl)-1H-indole-5-carboxamide], the IC50 in data set [1] was above 100000 nM; against PKCθ it was above 60000 nM.
With `N#Cc1cnc2sc(-c3ccccc3CN3CCC(O)CC3)cc2c1Nc1ccc2[nH]ccc2c1` [Compound 186, 2-{2-[(4-hydroxypiperidin-1-yl)methyl]phenyl}-4-(1H-indol-5-ylamino)thieno [2,3-b]pyridine-5-carbonitrile], the IC50 is 1600 nM in data set [1] and 290 nM against PKCθ.
In the same order, the values of `CN1CCN(CCC#Cc2cc3c(Nc4cccc5[nH]ccc45)c(C#N)cnc3s2)CC1` [Compound 222, 4-(1H-indol-4-ylamino)-2-[4-(4-methylpiperazin-1-yl)but-1-yn-1-yl]thieno[2,3-b]pyridine-5-carbonitrile] are 150 nM and 170 nM.
With `Cc1c(Nc2c(C#N)cnc3sc(-c4ccccc4)cc23)ccc2[nH]ccc12` [Compound 117, 4-[(4-methyl-1H-indol-5-yl)amino]-2-phenylthieno[2,3-b]pyridine-5-carbonitrile], the values for the IC50 (in data set [1]; against PKCθ) were 60 nM and 28 nM, respectively.

Broadly, the IC50 is the concentration needed to halve the response being measured. A higher IC50 goes with a need for much substance. Broadly, the melting point is the temperature of the solid-liquid transition.
